The text below walks through data of paper PMC10023970 (The Journal of Biological Chemistry, 2023).

One assay deals with OSA. Put plainly: cells.
The next assay relates to U2OS. Put plainly: cells. The following applies: Homo sapiens, U2OS.
For the next assay, the system named is RD. Put plainly: cells. As to conditions: Homo sapiens, RD.
The target of another assay is Brag2Sec7-PH (Homo sapiens, UniProt Q6DN90). Put plainly: GEF assay, […]GTPgammaS binding to Arf1, filter trapping. It is filed as biochemical. For orientation: GTPγS is a poorly hydrolysed GTP analogue; its binding reports G protein activation.
A further assay deals with ASAP1 (full-length) (Mus musculus, UniProt Q9QWY8). Put plainly: GAP assay, conversion of Arf1-GTP to Arf1-GDP. The assay is classed as biochemical.
For assay [1], the target named is T1, ASAP1PZA (Mus musculus, UniProt Q9QWY8).
T1 sequence (Q9QWY8 325-724 limits assumed): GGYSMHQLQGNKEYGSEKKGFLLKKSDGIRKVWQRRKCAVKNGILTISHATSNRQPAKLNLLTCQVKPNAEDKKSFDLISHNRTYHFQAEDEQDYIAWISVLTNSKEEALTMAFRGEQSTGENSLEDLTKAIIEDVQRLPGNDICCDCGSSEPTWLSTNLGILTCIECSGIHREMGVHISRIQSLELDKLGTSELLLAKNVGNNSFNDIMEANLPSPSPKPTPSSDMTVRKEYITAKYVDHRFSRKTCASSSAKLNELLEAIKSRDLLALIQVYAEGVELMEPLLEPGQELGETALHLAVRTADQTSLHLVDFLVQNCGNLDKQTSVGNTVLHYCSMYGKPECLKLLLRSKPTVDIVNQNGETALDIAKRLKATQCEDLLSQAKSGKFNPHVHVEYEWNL
Put plainly: GAP assay, conversion of Arf1-GTP to Arf1-GDP. The assay is classed as biochemical.

The next assay addresses myrArf1. The following applies: NAV-2729 partitioned in LUVs; PBS, room temperature; not myristoylated.
The subject of the next assay is C2C12. Put plainly: cells. As to conditions: Mus musculus.
The test system of another assay is NIH3T3. Put plainly: cells. The following applies: Mus musculus.
The test system of another assay is SMS-CTR. Put plainly: cells.
In the next assay the test system is HeLa. Put plainly: cells. As to conditions: Homo sapiens, HeLa, read-out: EC50 for cell killing (μM) / SecinH3.
In a further assay the test system is MCF 10A. Put plainly: cells. As to conditions: Homo sapiens, MCF-10A, read-out: EC50 for cell killing (μM) / SecinH3.
Assay [2] has as its target T1, ASAP1PZA. Put plainly: thermal shift, soluble fraction by SDS-PAGE. It is filed as binding. The following applies: 10 μM protein, no membrane.
Where [3] appears, read: read-out: EC50 for cell killing (μM) / Bragsin2.
Setting [4] is: read-out: EC50 for cell killing (μM) / NAV-2729.
Setting [5] is: read-out: EC50 for cell killing (μM) / SecinH3.

Read-outs that look alike come from different tables or passages of the source.

ASAP1 (full-length), sequence (Q9QWY8 whole entry): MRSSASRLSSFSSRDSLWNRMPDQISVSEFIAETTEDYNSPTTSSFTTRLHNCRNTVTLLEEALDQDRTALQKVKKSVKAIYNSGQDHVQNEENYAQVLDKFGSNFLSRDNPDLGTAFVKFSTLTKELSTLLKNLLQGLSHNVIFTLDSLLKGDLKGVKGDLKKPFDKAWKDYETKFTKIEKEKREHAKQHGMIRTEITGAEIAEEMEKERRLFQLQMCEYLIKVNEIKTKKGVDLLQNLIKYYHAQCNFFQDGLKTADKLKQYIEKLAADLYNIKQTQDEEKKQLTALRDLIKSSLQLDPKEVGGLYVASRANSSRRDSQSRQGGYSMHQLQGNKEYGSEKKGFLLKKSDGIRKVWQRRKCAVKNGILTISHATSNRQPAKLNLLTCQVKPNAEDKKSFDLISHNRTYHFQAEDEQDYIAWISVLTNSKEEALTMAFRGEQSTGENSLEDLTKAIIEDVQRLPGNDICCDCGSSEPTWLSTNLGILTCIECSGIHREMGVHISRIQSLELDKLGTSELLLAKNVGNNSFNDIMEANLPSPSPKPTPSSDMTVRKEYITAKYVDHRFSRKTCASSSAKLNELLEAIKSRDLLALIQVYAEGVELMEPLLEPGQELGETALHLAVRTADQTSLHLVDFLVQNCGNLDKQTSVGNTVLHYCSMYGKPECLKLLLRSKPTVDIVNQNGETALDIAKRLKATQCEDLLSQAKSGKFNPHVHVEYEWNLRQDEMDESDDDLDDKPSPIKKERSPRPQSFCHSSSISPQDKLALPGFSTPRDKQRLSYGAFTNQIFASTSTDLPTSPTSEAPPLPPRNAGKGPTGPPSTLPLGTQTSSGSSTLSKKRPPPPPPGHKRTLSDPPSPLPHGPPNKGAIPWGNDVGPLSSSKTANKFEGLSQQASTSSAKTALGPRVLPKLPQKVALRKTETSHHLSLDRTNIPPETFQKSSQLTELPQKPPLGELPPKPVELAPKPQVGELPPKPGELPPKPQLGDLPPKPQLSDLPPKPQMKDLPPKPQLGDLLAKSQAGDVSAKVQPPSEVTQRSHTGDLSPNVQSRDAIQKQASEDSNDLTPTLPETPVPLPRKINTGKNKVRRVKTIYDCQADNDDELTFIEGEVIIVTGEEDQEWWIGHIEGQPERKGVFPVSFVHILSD
Brag2Sec7-PH, sequence (Q6DN90 512-885): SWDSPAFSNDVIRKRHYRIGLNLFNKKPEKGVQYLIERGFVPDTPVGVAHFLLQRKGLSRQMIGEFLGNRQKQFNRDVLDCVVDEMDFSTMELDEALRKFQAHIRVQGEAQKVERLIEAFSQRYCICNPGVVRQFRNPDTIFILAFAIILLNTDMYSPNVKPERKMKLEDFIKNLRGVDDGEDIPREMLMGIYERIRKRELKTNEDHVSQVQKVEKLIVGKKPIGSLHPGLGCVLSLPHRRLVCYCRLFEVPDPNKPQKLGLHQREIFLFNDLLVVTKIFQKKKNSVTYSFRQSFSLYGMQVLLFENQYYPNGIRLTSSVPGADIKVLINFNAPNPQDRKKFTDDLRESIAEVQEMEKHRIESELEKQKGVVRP

As to `COc1ccc2oc(C(F)(F)F)cc(=O)c2c1[N+](=O)[O-]` [Bragsin2], the EC50 with OSA (setting [3]) and in the assay with U2OS (setting [3]) was greater than 50 µM in each case.
For the molecule `C[C@H]1CCC/C=C/[C@@H]2C[C@H](O)C[C@H]2[C@H](O)/C=C/C(=O)O1` [Brefeldin A], the EC50 with RD (read-out: EC50 for cell killing (μM) / Brefeldin A) worked out at 0.006 ± 0.002 µM.
The term IC50 denotes the concentration that gives 50% inhibition. Low readings indicate greater potency, high ones weaker potency. One may read the Kd as the constant that tells how readily two partners part at equilibrium. A high value points to a looser complex. Turning to `O=c1cc(-c2ccc([N+](=O)[O-])cc2)[nH]c2c(-c3ccc(Cl)cc3)c(Cc3ccccc3)nn12` [NAV-2729], the results for the concentration for half-maximal inhibition (IC50) at Brag2Sec7-PH, against ASAP1 (full-length) and on ASAP1PZA [1] were 7.1 ± 2.5 µM, 12.2 ± 1.4 µM and 4.6 ± 0.9 µM, respectively. On myrArf1, this molecule yielded a Kd greater than 50 µM. The EC50 in the assay with C2C12 (C2C12, read-out: EC50 for cell killing (μM) / NAV-2729) stood at 11 µM; in the assay on NIH3T3 (NIH3T3, read-out: EC50 for cell killing (μM) / NAV-2729) it was 11 µM; with RD (setting [4]) it was 8 µM; in the assay on SMS-CTR (setting [4]) it was 11 µM.
Take `COc1nc(-c2ccc3c(c2)OCO3)n(-c2ccc(NC(=O)CSc3ccccc3)cc2)n1` [SecinH3]: the EC50 with C2C12 (C2C12, read-out: EC50 for cell killing (μM) / SecinH3) is greater than 50 µM; with HeLa it was greater than 50 µM; in the assay on MCF 10A it was greater than 50 µM; in the assay with NIH3T3 (NIH3T3, read-out: EC50 for cell killing (μM) / SecinH3) it was greater than 50 µM; in the assay with OSA (setting [5]), greater than 50 µM; in the assay with RD (setting [5]) it was greater than 50 µM. The EC50 in the assay with SMS-CTR (setting [5]) and in the assay with U2OS (setting [5]) was greater than 50 µM throughout.
For `CCCCCCCC(=O)OC[C@H](COP(=O)(O)O[C@@H]1[C@H](O)[C@H](O)[C@@H](OP(=O)(O)O)[C@H](OP(=O)(O)O)[C@H]1O)OC(=O)CCCCCCC` [diC8-PIP2], the “thermal shift at 200 μM” value at ASAP1PZA [2] is recorded as ~ 6 degree.
